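Where inhibition never reached the appropriate level, the endpoint shown equals the highest concentration tested. Otherwise, values were interpolated linearly from a five-concentration, 48-hour dose response in 96-well plates. Abbreviation: GI50, concentration required for 50% inhibition of growth.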 Activity calls are given as the source filed them. No stated cut-off is given here; in the data, active = GI50 up to about 1.1 µM and inactive = higher.
How the values were obtained:
Assay in all cases: DTP human tumour cell line panel, 48 h
[1] = system: ACHN
[2] = system: HCT-116
[3] = system: U-251
[4] = system: TK-10
[5] = system: KM12
[6] = system: SR
[7] = system: M14
[8] = system: HT-29
[9] = system: SF-539
[10] = system: SNB-19
[11] = system: UO-31
[12] = system: A549
[13] = system: MCF7
[14] = system: MOLT-4
[15] = system: OVCAR-4
[16] = system: MDA-N
[17] = system: UACC-62
[18] = system: Malme-3M
[19] = system: DU-145
[20] = system: 786-0
[21] = system: SF-268
[22] = system: HCT-15
[23] = system: A498
[24] = system: SK-MEL-2
[25] = system: NCI-H460
[26] = system: HL-60
[27] = system: UACC-257
[28] = system: EKVX
[29] = system: SNB-75
[30] = system: NCI/ADR-RES
[31] = system: RXF 393
[32] = system: K562
[33] = system: OVCAR-8
[34] = system: CCRF-CEM
[35] = system: IGROV-1
[36] = system: HOP-92
[37] = system: OVCAR-5
[38] = system: SF-295
[39] = system: SK-OV-3
[40] = system: NCI-H226
[41] = system: BT-549
[42] = system: NCI-H522
[43] = system: SK-MEL-28
[44] = system: T47D
[45] = system: PC-3
[46] = system: OVCAR-3
[47] = system: Hs-578T
[48] = system: SK-MEL-5
[49] = system: SN12C
[50] = system: NCI-H23
[51] = system: HOP-62
[52] = system: COLO 205
[53] = system: MDA-MB-435
[54] = system: MDA-MB-231
[55] = system: LOX IMVI
[56] = system: SW-620
[57] = system: HCC 2998
[58] = system: RPMI-8226

COC(=O)C1(Cc2ccccc2)Cc2cc3c(cc2C1=O)CCC3 (stereo not drawn)
GI50 [1]: 49.8 µM (inactive)
GI50 [2]: 23.8 µM (inactive)
GI50 [3]: 33.6 µM (inactive)
GI50 [4]: 64 µM (inactive)
GI50 [5]: 19.8 µM (inactive)
GI50 [6]: 21.9 µM (inactive)
GI50 [7]: 20 µM (inactive)
GI50 [8]: 12 µM (inactive)
GI50 [9]: 43.2 µM (inactive)
GI50 [10]: 47.1 µM (inactive)
GI50 [11]: 34.5 µM (inactive)
GI50 [12]: 16.6 µM (inactive)
GI50 [13]: 13.9 µM (inactive)
GI50 [14]: 17.1 µM (inactive)
GI50 [15]: 33.7 µM (inactive)
GI50 [16]: 15 µM (inactive)
GI50 [17]: 33.4 µM (inactive)
GI50 [18]: 22.5 µM (inactive)
GI50 [19]: 48.1 µM (inactive)
GI50 [20]: 39.4 µM (inactive)
GI50 [21]: 22.2 µM (inactive)
GI50 [22]: 31.6 µM
GI50 [23]: 28.2 µM (inactive)
GI50 [24]: 18.3 µM (inactive)
GI50 [25]: 4.44 µM (inactive)
GI50 [26]: 14.6 µM (inactive)
GI50 [27]: 36.9 µM (inactive)
GI50 [28]: 25.3 µM (inactive)
GI50 [29]: 27.7 µM (inactive)
GI50 [30]: 30.5 µM (inactive)
GI50 [31]: 36.8 µM (inactive)
GI50 [32]: 31.4 µM (inactive)
GI50 [33]: 31.2 µM (inactive)
GI50 [34]: 22.6 µM (inactive)
GI50 [35]: 36 µM (inactive)
GI50 [36]: 11.6 µM (inactive)
GI50 [37]: 58.9 µM (inactive)
GI50 [38]: 38.2 µM (inactive)
GI50 [39]: 41.1 µM (inactive)
GI50 [40]: 27.4 µM (inactive)
GI50 [41]: 43.7 µM (inactive)
GI50 [42]: 21.2 µM (inactive)
GI50 [43]: 46.2 µM (inactive)
GI50 [44]: 13.4 µM (inactive)
GI50 [45]: 26.1 µM (inactive)
GI50 [46]: 40 µM (inactive)
GI50 [47]: 49.7 µM (inactive)
GI50 [48]: 16.6 µM (inactive)
GI50 [49]: 37.3 µM (inactive)
GI50 [50]: 56.2 µM (inactive)
GI50 [51]: 80.5 µM (inactive)
GI50 [52]: 19.5 µM (inactive)
GI50 [53]: 15.1 µM (inactive)
GI50 [54]: 43.6 µM (inactive)
GI50 [55]: 27 µM (inactive)
GI50 [56]: 29.6 µM (inactive)
GI50 [57]: 2.81 µM (inactive)
GI50 [58]: 23.1 µM (inactive)
